Values joined by “and” are separate entries in the source; they are usually repeats but may differ in a detail not shown here. Equal entries are not always repeated.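 96-well plates; 48 h exposure; 5 concentrations. Endpoints by linear interpolation between flanking doses. Not reached: highest tested concentration assigned. GI50 = concentration required for 50% inhibition of growth. TGI denotes the concentration required for complete inhibition of growth.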

Test systems include DU-145 prostate; HOP-92 NSCLC; HT29 colon; KM12 colon; LOX IMVI melanoma; NCI-H23 lung; OVCAR-3 ovarian; OVCAR-8 ovarian; SF-295 CNS; SW-620 colon.
Test in all cases: inhibition of tumour cell growth, NCI panel, 48 h

For `COc1ccc([N+](=O)[O-])c(S(=O)(=O)c2ccc(Cl)cc2)n1`, the GI50 was 9.63 µM with DU-145 prostate; 2 µM with HOP-92 NSCLC; 3.34 µM in the test with HT29 colon; 14 µM in the test with KM12 colon; 1.98 µM in the test on LOX IMVI melanoma; 4.58 µM in the test with NCI-H23 lung. Also, the GI50 with OVCAR-3 ovarian is 2.34 µM; in the test with OVCAR-8 ovarian, 3.67 µM; in the test on SF-295 CNS, 13.1 µM; in the test on SW-620 colon, 2.06 µM. Also, the TGI stood at 21.3 µM in the test with DU-145 prostate; 6.17 µM in the test with HOP-92 NSCLC; 13.9 µM in the test on HT29 colon; 27.8 µM with KM12 colon; 4.19 µM in the test with LOX IMVI melanoma; 29.2 µM in the test with NCI-H23 lung. Besides, the TGI was 5.31 µM in the test on OVCAR-3 ovarian, 15.9 µM with OVCAR-8 ovarian, 28 µM in the test on SF-295 CNS and 4.65 µM in the test with SW-620 colon.
Regarding `COc1cc2nc(Nc3cccc(F)c3)nc(Nc3cc(C)[nH]n3)c2cc1OC`, the GI50 with DU-145 prostate is 1.64 µM; in the test with HOP-92 NSCLC, 1.67 µM; in the test on HT29 colon it was 1.99 µM; with KM12 colon, 1.64 µM; in the test on LOX IMVI melanoma, 1.72 µM; in the test with NCI-H23 lung, 1.69 µM. Moreover, the GI50 in the test on OVCAR-3 ovarian is 1.82 µM; in the test on OVCAR-8 ovarian, 1.76 µM; in the test with SF-295 CNS it was 1.58 µM; in the test with SW-620 colon, 1.84 µM. Further, the TGI with DU-145 prostate worked out at 3 µM; in the test on HOP-92 NSCLC, 3.21 µM; with HT29 colon it was 4.93 µM; in the test on KM12 colon, 3.32 µM; with LOX IMVI melanoma, 3.11 µM; in the test on NCI-H23 lung it was 3.27 µM. Moreover, the TGI in the test on OVCAR-3 ovarian amounted to 3.41 µM; in the test with OVCAR-8 ovarian it was 5.61 µM; with SF-295 CNS, 3.04 µM; in the test with SW-620 colon, 3.75 µM.
Consider `NS(=O)(=O)c1ccc(N2N=C3c4ccccc4CC3C2c2ccc(Cl)cc2)cc1` (stereo not drawn), for which the GI50 in the test on DU-145 prostate was 14.2 µM; in the test with HOP-92 NSCLC, 10.3 µM; with HT29 colon it was 15.7 µM; in the test on KM12 colon it was 5.54 µM; in the test on LOX IMVI melanoma it was 18 µM; with NCI-H23 lung, 11.4 µM. Besides, the GI50 in the test with OVCAR-3 ovarian is 17.3 µM; in the test on OVCAR-8 ovarian it was 11.8 µM; in the test with SF-295 CNS it was 16.3 µM; with SW-620 colon it was 4.71 µM. Further, the TGI in the test with DU-145 prostate was 36.7 µM; in the test with HOP-92 NSCLC, 28.9 µM; in the test with HT29 colon, greater than 100 µM; in the test on KM12 colon it was 49.8 µM; in the test with LOX IMVI melanoma, 36.5 µM; in the test with NCI-H23 lung it was 34.8 µM. The TGI in the test on OVCAR-3 ovarian amounted to 34.7 µM; in the test with OVCAR-8 ovarian, 33.4 µM; in the test with SF-295 CNS it was 34.2 µM; in the test on SW-620 colon it was 29.8 µM.
Turning to `Nc1ncnc2c1ncn2C1OC(CO)=CC1O` (stereo not drawn), the TGI with DU-145 prostate, with HOP-92 NSCLC, in the test with HT29 colon, in the test with KM12 colon, with LOX IMVI melanoma and with NCI-H23 lung was greater than 37.5 µM in each case. Moreover, the TGI in the test with OVCAR-3 ovarian, with OVCAR-8 ovarian, in the test with SF-295 CNS and with SW-620 colon was greater than 37.5 µM throughout.
For `CO[C@@H]1[C@H](OC(=O)NC(=O)CCl)CC[C@]2(CO2)[C@H]1[C@@]1(C)O[C@@H]1CC=C(C)C`, the GI50 in the test with DU-145 prostate was 22.2 µM; with HT29 colon it was 8.62 µM and 20.5 µM; in the test on KM12 colon, 3.36 µM; with LOX IMVI melanoma, 2.76 µM; in the test with NCI-H23 lung it was 2.99 µM and 5.94 µM; with OVCAR-3 ovarian, 8.68 µM. Also, the GI50 was 6.62 µM and 4.21 µM with SF-295 CNS; 5.73 µM and 4.16 µM in the test on SW-620 colon. In addition, the TGI with DU-145 prostate is 29.3 µM and 46.3 µM; in the test on HOP-92 NSCLC, 38.5 µM; with HT29 colon, 27.5 µM and 88.9 µM; in the test with KM12 colon, 27.2 µM and 28.6 µM; with LOX IMVI melanoma it was 25.2 µM and 34.6 µM; in the test on NCI-H23 lung it was 37 µM and 30.8 µM. Also, the TGI is 21.3 µM and 30.7 µM with OVCAR-3 ovarian; 79.9 µM in the test on OVCAR-8 ovarian; 18.7 µM and 38 µM in the test on SF-295 CNS; 51.7 µM and 41.3 µM in the test with SW-620 colon.
As for `C=C1C(=O)O[C@H]2[C@H]1CC/C(COC(=O)NCc1c[nH]c3ccc(Cl)cc13)=C\CC[C@@]1(C)O[C@@H]21`, the GI50 with DU-145 prostate is 1.2 µM; with HOP-92 NSCLC it was 1.46 µM; with HT29 colon, 0.625 µM; with KM12 colon, 2.37 µM; in the test on LOX IMVI melanoma it was 0.633 µM; with NCI-H23 lung, 1.71 µM. Also, the GI50 in the test with OVCAR-3 ovarian was 1.11 µM; in the test on OVCAR-8 ovarian, 1.38 µM; in the test on SF-295 CNS, 1.81 µM; in the test on SW-620 colon it was 0.657 µM. Moreover, the TGI in the test with DU-145 prostate amounted to 2.65 µM; in the test on HOP-92 NSCLC it was 3.01 µM; in the test with HT29 colon, 2.12 µM; in the test with KM12 colon, 6.28 µM; in the test on LOX IMVI melanoma, 2.03 µM; in the test on NCI-H23 lung, 3.39 µM. Further, the TGI came out at 2.7 µM in the test with OVCAR-3 ovarian, 3.36 µM with OVCAR-8 ovarian, 4.09 µM in the test with SF-295 CNS and 2.2 µM in the test with SW-620 colon.
Regarding `CN(C)CCCc1c[nH]c2ccccc12`, the TGI in the test with DU-145 prostate, in the test with HOP-92 NSCLC, in the test on HT29 colon, with KM12 colon, in the test on LOX IMVI melanoma and with NCI-H23 lung was greater than 100 µM throughout. Moreover, the TGI in the test on OVCAR-3 ovarian, in the test with OVCAR-8 ovarian, in the test on SF-295 CNS and with SW-620 colon was greater than 100 µM each time.
As for `C[C@H]1[C@H](C)CC[C@]2(C(=O)O)CC[C@]3(C)C(=CC[C@@H]4[C@@]5(C)C/C(=C/c6ccco6)C(=O)C(C)(C)[C@@H]5CC[C@]43C)[C@H]12`, the GI50 in the test with DU-145 prostate is 6.41 µM; in the test with HOP-92 NSCLC, 2.54 µM; in the test on HT29 colon, 5.3 µM; in the test with KM12 colon, 3.82 µM; with LOX IMVI melanoma, 4.51 µM; in the test with NCI-H23 lung it was 3.85 µM. The GI50 in the test with OVCAR-3 ovarian was 3.44 µM; with OVCAR-8 ovarian it was 4.63 µM; in the test on SF-295 CNS, 3.72 µM; in the test with SW-620 colon, 4.19 µM. For the same compound, the TGI in the test with DU-145 prostate came to 30.9 µM; in the test on HOP-92 NSCLC, 12.5 µM; with HT29 colon it was 34.6 µM; with KM12 colon, 15.6 µM; in the test on LOX IMVI melanoma it was 17 µM; with NCI-H23 lung it was 16.3 µM. The TGI was determined as 11.9 µM in the test on OVCAR-3 ovarian, 24.1 µM with OVCAR-8 ovarian, 15.5 µM in the test on SF-295 CNS and 19.5 µM with SW-620 colon.
With `CSc1nc2sc3cc(Cl)ccc3n2c(=N)c1C#N`, the GI50 in the test on DU-145 prostate was greater than 68.7 µM; in the test with HOP-92 NSCLC, less than 0.0468 µM; in the test with HT29 colon, 5.35 µM; in the test with KM12 colon it was 3.78 µM; in the test on LOX IMVI melanoma, greater than 74.4 µM; in the test on NCI-H23 lung, greater than 52 µM. Also, the GI50 in the test on OVCAR-3 ovarian is 11.8 µM; in the test with OVCAR-8 ovarian, 17.4 µM; with SF-295 CNS, 2.21 µM; in the test with SW-620 colon, 38.2 µM. The TGI is greater than 100 µM in the test on DU-145 prostate; 4.77 µM in the test on HOP-92 NSCLC; greater than 100 µM with HT29 colon; greater than 72 µM in the test with KM12 colon; greater than 100 µM in the test with LOX IMVI melanoma; greater than 100 µM in the test with NCI-H23 lung. Besides, the TGI in the test with OVCAR-3 ovarian was greater than 100 µM; in the test with OVCAR-8 ovarian it was greater than 100 µM; with SF-295 CNS it was 16.1 µM; in the test on SW-620 colon, greater than 100 µM.
`Nc1c(C(=O)Nc2ccccc2Cl)sc2nc3c(cc12)CCCCCC3`: the GI50 in the test with DU-145 prostate was 7.84 µM; with HOP-92 NSCLC, 1.77 µM; in the test with HT29 colon, 2.39 µM; in the test with KM12 colon it was 3.67 µM; in the test on LOX IMVI melanoma, 5.7 µM; in the test with NCI-H23 lung it was 8.83 µM. In addition, the GI50 with OVCAR-3 ovarian is 3.23 µM; in the test on OVCAR-8 ovarian, 4.11 µM; in the test on SF-295 CNS it was 2.47 µM; in the test with SW-620 colon, 3.14 µM. Further, the TGI is greater than 100 µM in the test on DU-145 prostate; 6.54 µM in the test with HOP-92 NSCLC; 13.4 µM in the test on HT29 colon; greater than 100 µM with KM12 colon; greater than 100 µM with LOX IMVI melanoma; greater than 100 µM in the test with NCI-H23 lung. The TGI with OVCAR-3 ovarian is 12.7 µM; in the test on OVCAR-8 ovarian it was 30.5 µM; in the test with SF-295 CNS, 13.6 µM; with SW-620 colon, greater than 100 µM.
Regarding `Cc1ccc(S(=O)(=O)N2CCc3ccc(O)c4c3C2Cc2cc(Cl)ccc2-4)cc1` (stereo not drawn), the GI50 with DU-145 prostate was 0.912 µM; in the test on HOP-92 NSCLC it was 0.354 µM; in the test with HT29 colon, 5.61 µM; in the test on KM12 colon it was 1.18 µM; with LOX IMVI melanoma it was 1.84 µM; in the test with NCI-H23 lung, 0.864 µM. The GI50 in the test with OVCAR-3 ovarian is 0.733 µM; in the test with OVCAR-8 ovarian it was 1.21 µM; in the test on SF-295 CNS, 1.37 µM; in the test on SW-620 colon it was 1.2 µM. Also, the TGI in the test on DU-145 prostate was 2.4 µM; with HOP-92 NSCLC it was 3.62 µM; in the test with HT29 colon, 10.8 µM; in the test with KM12 colon it was 4.21 µM; with LOX IMVI melanoma, 6.02 µM; with NCI-H23 lung, 3.28 µM. For the same compound, the TGI with OVCAR-3 ovarian stood at 1.63 µM; in the test on OVCAR-8 ovarian it was 5.83 µM; with SF-295 CNS, 6.12 µM; with SW-620 colon it was 9.35 µM.

(Values after PubChem BioAssay (NCI).)
